{"source": "patent US11407740B2", "about": "(priority 2018, dated 2022)", "key": {"E. coli": {"tested_on": "E. coli", "experiment": "Bacterial susceptibility testing, MIC by broth microdilution (CLSI)", "details": "broth microdilution, 35° C., 18-24 h"}, "K. pneumoniae": {"tested_on": "K. pneumoniae", "experiment": "Bacterial susceptibility testing, MIC by broth microdilution (CLSI)", "assay_type": "cell-based", "details": "35° C., 18-24 h", "method": "Minimal inhibitory concentrations (MIC) were determined by the broth microdilution method in accordance with the Clinical and Laboratory Standards Institute (CLSI) guidelines. In brief, organism suspensions were adjusted to a 0.5 McFarland standard to yield a final inoculum between 3×10^3 and 7×10^5 colony-forming units (CFU)/mL. Drug dilutions and inocula were made in sterile, cation adjusted Mueller-Hinton Broth (Beckton Dickinson). An inoculum volume of 100 μL was added to wells containing 100 μL of broth with 2-fold serial dilutions of drug."}}}
{"compound": "O=c1[nH]cnc(CC(CO)c2ccc(C#Cc3ccc(CN4CCNCC4)cc3)cc2)c1O", "note": "(centres unmarked) [Compound 55]", "values": [{"measurement": "E. coli MIC", "setting": "E. coli", "result": "B (B: >1 μg/mL to ≤8.0 μg/mL)"}, {"measurement": "K. pneumoniae MIC", "setting": "K. pneumoniae", "result": "D (D: >32 μg/mL)"}]}
